# Reference: US8222487B2, “Application of ERF genes from Bupleurum kaoi” (National Tsing Hua University, priority 2009, dated 2012)
# Legend:
# Assay type in all cases: cell-based, Bupleurum kaoi
# [1] = tested on: B. kaoi adventitious roots; assay: Fresh weight and appearance of adventitious roots after MeJA
# Protocol: FIG. 1 Effect of MeJA on fresh weight and appearance of B. kaoi adventitious roots. (A) Four weeks after subculture, the nutrient medium of B. kaoi adventitious roots was refreshed. MeJA (500 μM) was applied 2 weeks after refreshment. The fresh weights of adventitious roots were measured at 13 time points after MeJA treatment as indicated. (B) Adventitious roots treated with MeJA began to show dark brownish pigmentation after 2 weeks. Each panel is a representative of the adventitious roots at the indicated time points. The left and right flasks for each sub-panel indicate the control and MeJA treated adventitious roots, respectively. (C) H2O2 level and (D) MDA level were measured at the indicated time. Vertical bars indicate S.E. of the mean for n=3.
# Adventitious root cultures were induced from the roots of germ-free seedlings of B. kaoi and were subcultured every 6 weeks by adding 0.2 g roots to a 125 ml flask containing 50 ml of B5 liquid medium supplemented with 2 mg 1^−1 NAA. Cultures were shaken using a rotary shaker at 100 rpm at 25° C. in the dark. To quantify the effect of MeJA on saikosaponin level, adventitious roots were treated with 500 and 1000 μM MeJA 2 weeks after subculture. Total saikosaponin was measured 2 weeks after MeJA treatment. […]
# [2] = tested on: B. kaoi adventitious roots; assay: Effect of MeJA on saikosaponin production in adventitious roots (HPLC); details: for Increase of total saikosaponins: 2 weeks after treatment, P<0.05; for Saikosaponin: measured 14 days after MeJA treatment, mean ± S.E., n=3
# Protocol: Adventitious root cultures were induced from the roots of germ-free seedlings of B. kaoi and were subcultured every 6 weeks by adding 0.2 g roots to a 125 ml flask containing 50 ml of B5 liquid medium supplemented with 2 mg 1^−1 NAA. Cultures were shaken using a rotary shaker at 100 rpm at 25° C. in the dark. To quantify the effect of MeJA on saikosaponin level, adventitious roots were treated with 500 and 1000 μM MeJA 2 weeks after subculture. Total saikosaponin was measured 2 weeks after MeJA treatment. To monitor expression of MeJA-responsive genes, the nutrient medium was refreshed 4 weeks after subculture and MeJA (500 μM) was applied 2 weeks after refreshment. Roots were harvested at 13 time points (5 min; 1, 2, 8, 24 hours; 2, 4, 6, 8 days; 2, 3, 4, 5 weeks) after the addition of the MeJA. The saikosaponins level was measured according to Li et al. (Li X. Q. et al., Biol. Pharm. Bull. 28 (2005) 1736-1742) with some modifications. Freeze-dried adventitious roots were ground into a fine powder and extracted with 70% methanol at a ratio of 10:1 (v/w) at 25° C. with gentle shaking for 24 h. After centrifugation at 10,000×g for 10 min, the supernatant was filtered through a 0.45 μm filter. The amount of total saikosaponins (saikosaponin-a, saikosaponin-c, and saikosaponin-d) in each extract was quantified using a high performance liquid chromatograph (HPLC) (Waters 600 controller autoinjector) with a C18 Inertsil 5 ODS-2 column (4.6 mm×250 mm) and a mobile phase of 45% acetonitrile/55% H2O. The flow rate was 1 ml min^−1, the injection volume was 20 μl, and the eluent was monitored at 210 nm using a Waters 996 photodiode array detector.
# [3] = tested on: B. kaoi adventitious roots; assay: Measurement of malondialdehyde (MDA) in adventitious roots
# Protocol: To test whether MeJA caused oxidative stress, the H2O2 level was measured as described below. H2O2 was extracted by homogenizing 0.3 to 0.5 g of adventitious roots with 3 ml phosphate buffer (50 mM, pH6.8) and centrifuged at 6000×g for 25 min. A 2 ml extract was mixed with 1 ml 0.1% titanium sulfate in 20% H2SO4 (v/v), and centrifuged at 6000×g for 15 min. The optical density of the supernatant was measured at 410 nm using an equal volume of phosphate buffer as a blank. […] The MDA level was colorimetrically measured as described below. MDA was extracted by homogenizing 0.3 to 0.5 g adventitious roots with 2 ml 5% trichloroacetic acid, and centrifuged at 10,000×g for 5 min at 20° C. A mixture of 1 ml supernatant with 4 ml 0.5% thiobarbituric acid in 20% trichloroacetic acid was heated in a 95° C. water bath for 30 min and centrifuged for 10 min at 2000×g to remove haziness. Optical density of the supernatant was measured at 532 nm and 600 nm using 1 ml 5% trichloroacetic acid to replace supernatant as a blank.
smiles,measurement,setting,value
"CC/C=C\CC1C(=O)CCC1CC(=O)OC (centres unmarked) [MeJA, Methyl jasmonate]",Appearance of roots (pigmentation),"[1]; 500 μM MeJA, 2 weeks later, compared to control",marked pigmentation
same,Growth of adventitious roots (fresh weight),[1]; 8 days after 500 μM MeJA treatment,retarded
same,Increase of total saikosaponins,[2]; 500 μM MeJA,38 fold
same,Increase of total saikosaponins,[2]; 1000 μM MeJA,21 fold
same,Saikosaponin,[2]; MeJA 500 μM,63.60 ± 20.46 μg g^−1 of dry wt
same,Saikosaponin,[2]; MeJA 1000 μM,39.73 ± 13.25 μg g^−1 of dry wt
same,Increase in the MDA level,"[3]; 500 μM MeJA, at 2 days",1.4 fold
same,Accumulation of MDA,[3]; all treatments during 5 weeks,< 47 nmol/g
